Columns and labels:
Type in all cases: physicochemical
[1] = Effect of pH on formation of related compounds, aqueous composition stored at 27.5° C. for 7 months
Protocol: (§1) The effect of the pH of the aqueous fludarabine phosphate composition on the stability of the compositions at elevated temperatures also is shown in Tables 2 and 3. The concentration of fludarabine phosphate in each of the compositions of Tables 2 and 3 was 25 mg/mL.

[2] = Effect of pH on formation of related compounds, aqueous compositions stored at 40° C. for 1 month
Protocol: The effect of the pH of the aqueous fludarabine phosphate composition on the stability of the compositions at elevated temperatures is shown in the following table. The concentration of fludarabine phosphate in each of the compositions of Table 1 was 25 mg/mL.
Its level of “total related compounds” was 0.1%. In contrast, after being stored for 1 months at 40° C., the fludarabine phosphate composition having a pH of 7.7 contained 0.8 of FP-2HA and 1.3% “total related compounds.”

[3] = Effect of pH on formation of related compounds, aqueous composition stored at 40° C. for 1 month followed by one-year storage at 2-8° C.; conditions: 25 mg/mL, 40° C. 1 month then one year 2-8° C.
Protocol: as §1

[4] = pH 5.5, 25 mg/mL aqueous composition
[5] = pH 6.5, 25 mg/mL aqueous composition
[6] = pH 7.7, 25 mg/mL aqueous composition
[7] = pH 8.1, 25 mg/mL aqueous composition

Fludarabine phosphate
Concentration of FP-2HA, % ([1]; pH 6.8, 25 mg/mL): 0.33%
Single Largest Other, % ([1]; pH 6.8, 25 mg/mL): 0.1%
Total Related Compounds*, % (excluding fludarabine) ([1]; pH 6.8, 25 mg/mL): 0.43%
Concentration of FP-2HA, % ([1]; pH 7.2, 25 mg/mL): 0.54%
Single Largest Other, % ([1]; pH 7.2, 25 mg/mL): 0.1%
Total Related Compounds*, % (excluding fludarabine) ([1]; pH 7.2, 25 mg/mL): 0.94%
Concentration of FP-2HA, % [2, 4]: <LOQ
Total Related Compounds*, % (excluding fludarabine) [2, 4]: 0.1%
Concentration of FP-2HA, % [2, 5]: <LOQ
Total Related Compounds*, % (excluding fludarabine) [2, 5]: 0.2%
Concentration of FP-2HA, % [2, 6]: 0.8%
Total Related Compounds*, % (excluding fludarabine) [2, 6]: 1.3%
Concentration of FP-2HA, % [2, 7]: 1.0%
Total Related Compounds*, % (excluding fludarabine) [2, 7]: 2.2%
Concentration of FP-2HA, % ([3]; pH 6.0): 0.4%
Single Largest Other, % ([3]; pH 6.0): 0.09%
Total Related Compounds*, % (excluding fludarabine) ([3]; pH 6.0): 0.5%
Concentration of FP-2HA, % ([3]; pH 7.0): 0.32%
Single Largest Other, % ([3]; pH 7.0): 0.1%
Total Related Compounds*, % (excluding fludarabine) ([3]; pH 7.0): 0.34%
Concentration of FP-2HA, % ([3]; pH 7.6): 0.56%
Single Largest Other, % ([3]; pH 7.6): 0.2%
Total Related Compounds*, % (excluding fludarabine) ([3]; pH 7.6): 1.1%
Concentration of FP-2HA, % ([3]; pH 8.1): 0.93%
Single Largest Other, % ([3]; pH 8.1): 0.4%
Total Related Compounds*, % (excluding fludarabine) ([3]; pH 8.1): 2.0%
